Publication PMC11420952, “A Chemical Approach to Assess the Impact of Post-translational Modification on MHC Peptide Binding and Effector Cell Engagement” (ACS Chemical Biology, 2024)
Where no end group is shown, it is not given here. [ ]: non-standard residue; d: D form. The star is where a group is joined. Biotin = O=C1N[C@H]2[C@H](CS[C@H]2CCCCC(=O)*)N1; Cit = NC(=O)NCCC[C@H](N)C(=O)O

Assays:
H-2K^b [1] = target: T1, H-2K^b (Mus musculus, UniProt P01901); test: cell-based; conditions: RMA-S cells, peptide 20 μM, APC anti-mouse H-2K^b antibody, flow cytometry; for effect of PTM on MHC binding versus sarsWT: Figure 1C, mean ± SD n = 3, two-tailed t-test; for effect of PTM on MHC binding versus the unmodified peptide (ovaWT or mbpWT): Figures 2B and 3B, mean ± SD n = 4, two-tailed t-test
T1 construct: endogenous in cells; host or cells: RMA-S cells (TAP-deficient)
T1 sequence (P01901 22-369): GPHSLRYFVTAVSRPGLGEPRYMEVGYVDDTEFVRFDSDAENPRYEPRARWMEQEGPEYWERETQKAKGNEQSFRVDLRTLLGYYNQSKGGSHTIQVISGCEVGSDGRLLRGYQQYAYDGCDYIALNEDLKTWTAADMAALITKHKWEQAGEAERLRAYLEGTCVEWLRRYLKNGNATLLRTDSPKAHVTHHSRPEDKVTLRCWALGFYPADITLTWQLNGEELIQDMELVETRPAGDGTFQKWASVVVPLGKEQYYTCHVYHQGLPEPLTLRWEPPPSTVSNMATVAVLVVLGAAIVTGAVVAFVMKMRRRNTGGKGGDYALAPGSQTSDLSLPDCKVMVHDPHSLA
T1 sequence (P01887 21-119 partner): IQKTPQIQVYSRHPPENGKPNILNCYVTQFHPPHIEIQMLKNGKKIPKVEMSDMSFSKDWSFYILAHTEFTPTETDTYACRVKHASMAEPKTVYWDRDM

H-2K^b [2] = target: T1, H-2K^b; conditions: reported in the literature; cited from earlier work
[3] = test system: OVA specific TCR of B3Z T cell hybridoma; test: B3Z T cell activation with peptide-loaded RMA-S cells (NFAT-LacZ / CPRG); format: cell-based; conditions: RMA-S cells with peptide and B3Z T cells overnight, effector to target 1:1; β-galactosidase by CPRG, absorbance 570 nm; Figure 2C, mean ± SD n = 4
Text: To assess the impact of ovaWT PTMs on TCR recognition, we utilized the B3Z T cell hybridoma cell line that contains an OVA specific TCR along with a NFAT-LacZ reporter gene that encodes for β-galactosidase on an IL-2 inducible promoter.[79] Upon B3Z recognition of the OVA pMHC complex on RMA-S cells, IL-2 production promotes β-galactosidase expression, which can hydrolyze chlorophenol red-β-D-galactopyranoside (CPRG), and the resulting color change is representative of activation levels.
10^5 RMA-S cells were seeded in a treated 96 well plate at 37 °C overnight. The following day the culture media was replaced with media containing indicated concentration of peptide along with 10^5 B3Z cells in culture media and coincubated overnight. Cells were then spun down at 500xg for 5 min and washed with 1X PBS a total of two times. Lysis buffer containing 0.2% saponin, 500 μM CPRG reagent, 100 mM MgCl2, and 100 mM β-mercaptoethanol in 1X PBS was added to each well. After 2–4 h absorbance 570 was recorded using a BioTek Epoch 2 microplate reader.

MHC on RMA-S cells = test: Mild acid elution of MHC-bound peptides from RMA-S cells and mass spectrometry; format: cell-based; conditions: 10^9 RMA-S cells, 20 μM peptide, mild acid elution pH 3.3, LC-MS/MS (LTQ-Orbitrap); Figures S5-S8
Description: We then sought to detect changes in peptide binding via a competition assay using the parent cell line (RMA) that has a competent TAP system. To this end, we performed a competition assay using the panel of OVA peptides barring PTM mark in live RMA cells. The assay was performed by coincubating RMA cells individually with PTM-modified peptides and also ovaFl (SIINFEK(FITC)L), in which the […] of lysine is modified with fluoresceine. ovaFl has long been utilized by the field to interrogate binding of untagged peptides for MHC molecules. A decrease in cellular fluorescence should indicate higher association levels with MHC molecules, thereby informing on the relative affinity of the PTM-modified molecules. Critically, this assay retains MHC molecules within a physiologically relevant context and this alternative readout should complement the RMA-S MHC stabilization assay. […]
The emitter tip of the analytical column was laser-pulled to produce an opening of 2–5 μm, and a 2 mm kasil frit was used in place of the irregular reverse phase (RP) resin. […] If the same precursor ion was selected three times or was detected twice within a 20-s repeat duration, the ion was dynamically excluded for 15 s. […]

In the case of “N-Acetyl ESIVRFPNI [sarsWT with N-terminus acetylation]”, the “effect of PTM on MHC binding versus sarsWT” value (H-2K^b [1]) is reported as “completely disrupted MHC binding”.

In the case of SNFVSAGI [cntPEP], the “interaction with H-2K^b (negative control)” value (H-2K^b [2]) is given as “not interact appreciably”.

In the case of “Phosphoserine SIINFEKL: ovaWT with phosphorylated N-terminal serine”, the “effect of PTM on MHC binding versus the unmodified peptide (ovaWT or mbpWT)” value (H-2K^b [1]) is reported as “significant decrease in MHC binding” and the “effect of PTM on TCR recognition (B3Z activation) versus ovaWT” value [3] is reported as “reduction in TCR recognition”.

For “ovaK7m3: ovaWT with trimethylation of K7”, the “detection of MHC-bound peptide after elution from live RMA-S cells” value (MHC on RMA-S cells) was “detected by mass spectrometry” and the “effect of PTM on MHC binding versus the unmodified peptide (ovaWT or mbpWT)” value (H-2K^b [1]) was “does not disrupt binding”.

With SIINFEKL [ovaWT, reference compound] the “detection of MHC-bound peptide after elution from live RMA-S cells” value (MHC on RMA-S cells) was “clearly detected”.

In the case of “Biotinylated Lysine SIINFKEL: ovaWT with biotinylated lysine (SIINFK(Biotin)EL; not fully specified)”, the “effect of PTM on MHC binding versus the unmodified peptide (ovaWT or mbpWT)” value (H-2K^b [1]) is reported as “binding levels are altered but the change is not significant” and the “effect of PTM on TCR recognition (B3Z activation) versus ovaWT” value [3] is reported as “reduction in TCR recognition”.

For “Citrullinated ESIVRFPNI: sarsWT with arginine to citrulline (R5) (ESIV[Cit]FPNI)”, the “effect of PTM on MHC binding versus sarsWT” value (H-2K^b [1]) was “no significant effect”.
